Where two headings read alike, the source gives them in different places. Positions of bridges follow the written chain, without caps; N, C: chain ends. Residues, ends and D or L forms follow the SMILES beside them.
Assays:
[1] = stability of oxetane to side-chain deprotection with TFA; format: physicochemical; settings: 70% TFA/20% CH2Cl2/10% TIS, 2.5 h (global side-chain deprotection including Arg Pbf)
Excerpt: Macrocyclisations not involving head-to-tail ring closure have also been examined. Specifically, the formation of disulphide containing macrocycles through oxidative cyclisation of cysteine side chains has been explored (Scheme 5). Treatment of 2, whose synthesis was described in Scheme 3, with iodine provided the 17-membered macrocycle by way of trityl deprotection and disulphide bond formation. Further reaction with TFA in the presence of the cation scavenger triisopropylsilane (TIS) facilitated removal of all the side chain protecting groups providing 22 after reverse-phase HPLC purification. […] Smaller 11- and 14-membered macrocycles 23 and 24 were also conveniently produced in good yields using this methodology.
[formula] Scheme 5 Oxetane modified cyclic peptides by disulphide bond formation.^a^,^b^aReagents and conditions: (a) I2 (3.0 equiv.), MeOH, 1 h; (b) 70% TFA/20% CH2Cl2/10% TIS, 2.5 h. ^bBond formed in macrocyclisation indicated in red. ^cTFA step omitted; yield in parenthesis for the cyclisation of linear peptide with C?O rather than oxetane in backbone. ^dData taken from [ref. 14].
Fmoc-Cys(Trt)-Asn(Trt)-GOx-Arg(Pbf)-Cys(Trt)-OtBu (2)
Diethylamine (1.0 mL) was added to a solution of Fmoc-GOx-Arg(Pbf)-Cys(Trt)-OtBu (127) […]
and the reaction mixture was stirred at room temperature for 1 h. […]

[2] = biological target: T1, porcine Aminopeptidase N (APN) (Sus scrofa, UniProt P15145); test: porcine Aminopeptidase N inhibition, spectrophotometric; format: biochemical
T1 construct: aminopeptidase from porcine kidney (pAPN, Sigma Aldrich); purchased Sigma Aldrich; host or cells: porcine kidney (microsomal preparation)
T1 sequence (P15145 1-963): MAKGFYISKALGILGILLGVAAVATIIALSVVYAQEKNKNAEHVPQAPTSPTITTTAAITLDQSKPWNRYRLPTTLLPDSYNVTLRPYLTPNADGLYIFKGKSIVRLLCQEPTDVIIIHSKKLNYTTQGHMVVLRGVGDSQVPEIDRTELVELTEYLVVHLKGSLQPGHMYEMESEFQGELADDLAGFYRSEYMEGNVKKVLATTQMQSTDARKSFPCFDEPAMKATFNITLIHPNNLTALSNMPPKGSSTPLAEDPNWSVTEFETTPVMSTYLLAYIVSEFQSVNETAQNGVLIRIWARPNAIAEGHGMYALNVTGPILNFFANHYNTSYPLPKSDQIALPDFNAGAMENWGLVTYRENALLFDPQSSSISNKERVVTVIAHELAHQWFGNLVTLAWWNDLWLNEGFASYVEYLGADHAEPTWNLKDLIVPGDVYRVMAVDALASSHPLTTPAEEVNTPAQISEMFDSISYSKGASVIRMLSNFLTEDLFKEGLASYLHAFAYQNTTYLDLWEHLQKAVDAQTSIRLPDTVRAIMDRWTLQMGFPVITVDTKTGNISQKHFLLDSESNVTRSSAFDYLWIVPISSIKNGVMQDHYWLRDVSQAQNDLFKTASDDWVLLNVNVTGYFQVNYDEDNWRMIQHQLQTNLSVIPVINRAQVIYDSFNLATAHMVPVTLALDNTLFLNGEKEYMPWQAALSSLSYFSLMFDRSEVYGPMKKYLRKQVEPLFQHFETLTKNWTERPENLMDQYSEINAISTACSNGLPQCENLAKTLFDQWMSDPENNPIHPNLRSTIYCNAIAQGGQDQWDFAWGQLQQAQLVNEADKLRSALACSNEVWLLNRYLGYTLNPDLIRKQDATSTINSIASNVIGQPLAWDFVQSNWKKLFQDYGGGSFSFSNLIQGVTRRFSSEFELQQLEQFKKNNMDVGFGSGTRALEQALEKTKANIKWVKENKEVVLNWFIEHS
Excerpt: Studies to explore the impact of oxetane modification on the bioactivity of the derived cyclic peptides were undertaken. cCNGRC (26) is known to target Aminopeptidase N (APN), a transmembrane zinc-dependent metalloprotease involved in a variety of processes, including blood pressure regulation, cell migration, viral uptake, cell survival, and angiogenesis.[18],[19] Both oxetane modified derivative 22 and cCNGRC (26) were examined for their inhibitory activity towards porcine APN using a spectrophotometric assay (Table 2).[19]
4. In vitro inhibition assay of aminopeptidase N with oxetane modified peptide 22 and parent
Peptide 26 was synthesised following a procedure by Piras et al.[10] using HCTU as coupling reagent and NMM as base. Oxidation was performed by on-resin cyclization as described for the biotin labelled […]
For the determination of IC50 values of oxetane modified peptide 22 and parent peptide 26, a protocol published by Piras et al.[10] was followed using L-leucine-p-nitroanilide as substrate and microsomal aminopeptidase from porcine kidney (pAPN, Sigma Aldrich) (18 units/mg protein). IC50 values were calculated by following the formation of p-nitroaniline. Formation of p-nitroaniline was monitored by measurement of the UV absorption at 405 nm on a Hidex Sense plate reader. […]

[3] = head-to-tail lactamisation of free linear peptides (H-/-OH), DEPBT (2 equiv), iPr2EtN (2 equiv); settings: DMF, 1.0 mM, 25.0 °C

Q: Which results are given for N=C(N)NCCC[C@@H]1NC2(CNC(=O)[C@H](CC(N)=O)NC(=O)[C@@H](N)CSSC[C@@H](C(=O)O)NC1=O)COC2 [Compound 22, Cyclo(H-Cys-Asn-GOx-Arg-Cys-OH)]?
A: oxetane stability to acid [1]: survives the strongly acid conditions; IC50 ([2]; read-out: IC50): 175 µM

Q: For CC(C)C[C@@H]1NC(=O)[C@H](Cc2ccc(O)cc2)NC(=O)[C@H](C)NC(=O)CNC(=O)[C@H](C)NC1=O [H-Leu-Ala-Gly-Ala-Tyr-OH], which ring closure, isolated yield ([3]; from CC(C)C[C@H](N)C(=O)N[C@@H](C)C(=O)NCC(=O)N[C@@H](C)C(=O)N[C@@H](Cc1ccc(O)cc1)C(=O)O, 15-membered ring, 24.0 h) is on record?
A: Its ring closure, isolated yield is 31%.

Q: Which ring closure, isolated yield ([3]; from CC(C)C[C@H](NC(=O)[C@H]1CCCN1)C(=O)NCC1(NCC(=O)O)COC1, 12-membered ring, 48.0 h) does the source give for CC(C)C[C@@H]1NC(=O)[C@H]2CCCN2C(=O)CNC2(CNC1=O)COC2 [H-D-Pro-Leu-GOx-Gly-OH] here?
A: Its ring closure, isolated yield is 54%.

Q: For N=C(N)NCCC[C@@H]1NC(=O)CNC(=O)[C@H](CC(N)=O)NC(=O)[C@@H](N)CSSC[C@@H](C(=O)O)NC1=O [cCNGRC (26), reference compound] (H-CNGRC-OH; disulfide 1-5), which IC50 [2] is on record?
A: Its IC50 is 212 µM.

Q: With CC(C)C[C@@H]1NC(=O)[C@H](Cc2ccccc2)NC(=O)[C@H]([C@@H](C)OC(C)(C)C)NC2(CNC(=O)[C@H](C(C)C)NC(=O)[C@H](Cc3ccc(OC(C)(C)C)cc3)NC1=O)COC2 [H-Leu-Tyr(tBu)-Val-GOx-Thr(tBu)-Phe-OH] as the compound, how does the ring closure, isolated yield ([3]; from CC(C)C[C@H](N)C(=O)N[C@@H](Cc1ccc(OC(C)(C)C)cc1)C(=O)N[C@H](C(=O)NCC1(N[C@H](C(=O)N[C@@H](Cc2ccccc2)C(=O)O)[C@@H](C)OC(C)(C)C)COC1)C(C)C, 18-membered ring, 48.0 h) read?
A: The ring closure, isolated yield was 58%.
